Measurements from ChEMBL document CHEMBL4371076 (J Med Chem, 2019).
The source made the active and inactive calls. The rule behind the calls is not given here.

Legend:
[1] = Permeability of the compound at pH 5.5 by PAMPA; assay type: ADME; conditions: read-out: permeability
[2] = target: T1, Cytochrome P450 2B6 (Homo sapiens, UniProt P20813); experiment: Time-dependant inhibition of CYP2B6 in human liver microsomes; assay type: ADME
T1 sequence (P20813 whole entry): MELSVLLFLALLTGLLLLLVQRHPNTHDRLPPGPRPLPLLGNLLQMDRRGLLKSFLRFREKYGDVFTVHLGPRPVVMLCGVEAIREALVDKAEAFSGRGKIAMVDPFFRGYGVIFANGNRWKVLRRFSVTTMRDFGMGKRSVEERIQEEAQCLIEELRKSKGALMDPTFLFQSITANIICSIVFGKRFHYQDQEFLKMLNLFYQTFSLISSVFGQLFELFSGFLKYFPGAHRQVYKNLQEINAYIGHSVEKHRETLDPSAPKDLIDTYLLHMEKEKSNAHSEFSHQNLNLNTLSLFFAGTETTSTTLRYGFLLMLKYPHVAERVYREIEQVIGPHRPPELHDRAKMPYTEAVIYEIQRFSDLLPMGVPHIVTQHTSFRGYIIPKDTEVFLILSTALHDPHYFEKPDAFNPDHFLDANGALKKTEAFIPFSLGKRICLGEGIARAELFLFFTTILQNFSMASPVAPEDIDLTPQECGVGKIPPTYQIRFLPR

[3] = target: T2, Cytochrome P450 2C19 (Homo sapiens, UniProt P33261); experiment: Time-dependant inhibition of CYP2C19 in human liver microsomes; assay type: ADME
T2 sequence (P33261 whole entry): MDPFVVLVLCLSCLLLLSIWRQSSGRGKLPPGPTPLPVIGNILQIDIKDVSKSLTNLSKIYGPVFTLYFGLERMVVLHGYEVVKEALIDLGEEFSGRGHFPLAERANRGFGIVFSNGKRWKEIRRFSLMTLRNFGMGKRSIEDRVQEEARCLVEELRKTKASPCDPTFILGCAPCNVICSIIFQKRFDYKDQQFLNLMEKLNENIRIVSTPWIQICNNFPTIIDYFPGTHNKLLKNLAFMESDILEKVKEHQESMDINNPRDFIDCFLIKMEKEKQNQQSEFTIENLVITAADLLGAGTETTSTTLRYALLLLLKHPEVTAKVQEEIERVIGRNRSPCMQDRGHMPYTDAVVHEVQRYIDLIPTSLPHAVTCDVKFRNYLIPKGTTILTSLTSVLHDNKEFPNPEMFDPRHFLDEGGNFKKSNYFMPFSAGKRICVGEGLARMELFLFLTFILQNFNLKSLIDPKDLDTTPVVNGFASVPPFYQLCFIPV

[4] = Drug uptake in DRG neurons of CD1 mouse model of formalin-induced nociception at 30 mg/kg, po; assay type: ADME, organism-based, DRG neuron; conditions: in vivo, read-out: Drug uptake
[5] = system: Mus musculus; experiment: Analgesic activity in CD1 mouse model of formalin-induced nociception assessed as reduction in formalin-evoked paw flinching/licking response during first phase at 30 mg/kg, po pretreated for 30 mins followed by formalin treatment and measured during first 5 mins post formalin injection; assay type: functional, organism-based
[6] = system: Mus musculus; experiment: Analgesic activity in CD1 mouse model of formalin-induced nociception assessed as reduction in formalin-evoked paw flinching/licking response during second phase at 30 mg/kg, po pretreated for 30 mins followed by formalin treatment and measured during 15 to 45 mins post formalin injection; assay type: functional, organism-based
[7] = Fraction unbound in mouse plasma; assay type: ADME, cell-free
[8] = target: T3, Cytochrome P450 2C8 (Homo sapiens, UniProt P10632); experiment: Time-dependant inhibition of CYP2C8 in human liver microsomes; assay type: ADME
T3 sequence (P10632 whole entry): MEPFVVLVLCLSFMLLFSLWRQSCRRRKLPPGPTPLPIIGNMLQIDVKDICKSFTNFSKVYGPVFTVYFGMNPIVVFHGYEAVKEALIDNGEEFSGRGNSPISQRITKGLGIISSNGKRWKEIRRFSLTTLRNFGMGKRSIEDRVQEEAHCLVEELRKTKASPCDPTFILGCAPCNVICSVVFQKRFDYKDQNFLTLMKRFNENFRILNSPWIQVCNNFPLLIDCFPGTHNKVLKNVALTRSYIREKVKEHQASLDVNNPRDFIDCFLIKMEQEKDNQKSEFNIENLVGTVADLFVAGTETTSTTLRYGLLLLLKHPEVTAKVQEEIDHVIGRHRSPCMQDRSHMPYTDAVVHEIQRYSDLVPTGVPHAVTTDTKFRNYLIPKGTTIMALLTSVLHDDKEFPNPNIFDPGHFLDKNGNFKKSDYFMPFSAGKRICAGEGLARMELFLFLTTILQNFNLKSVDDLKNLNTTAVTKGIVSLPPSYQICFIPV

[9] = target: T4, Sodium channel protein type 9 subunit alpha (Homo sapiens, UniProt Q15858); experiment: Inhibition of recombinant human Nav1.7 expressed in HEK293 cells at -70 mV holding potential by patch clamp electrophysiology method; assay type: cell-based
[10] = Toxicity in CD1 mouse model of formalin-induced nociception assessed as prostration or sedation at 30 mg/kg, po; assay type: organism-based; conditions: in vivo
[11] = target: T5, Cytochrome P450 3A4 (Homo sapiens, UniProt P08684); experiment: Time-dependant inhibition of CYP3A4 in human liver microsomes; assay type: ADME
T5 sequence (P08684 whole entry): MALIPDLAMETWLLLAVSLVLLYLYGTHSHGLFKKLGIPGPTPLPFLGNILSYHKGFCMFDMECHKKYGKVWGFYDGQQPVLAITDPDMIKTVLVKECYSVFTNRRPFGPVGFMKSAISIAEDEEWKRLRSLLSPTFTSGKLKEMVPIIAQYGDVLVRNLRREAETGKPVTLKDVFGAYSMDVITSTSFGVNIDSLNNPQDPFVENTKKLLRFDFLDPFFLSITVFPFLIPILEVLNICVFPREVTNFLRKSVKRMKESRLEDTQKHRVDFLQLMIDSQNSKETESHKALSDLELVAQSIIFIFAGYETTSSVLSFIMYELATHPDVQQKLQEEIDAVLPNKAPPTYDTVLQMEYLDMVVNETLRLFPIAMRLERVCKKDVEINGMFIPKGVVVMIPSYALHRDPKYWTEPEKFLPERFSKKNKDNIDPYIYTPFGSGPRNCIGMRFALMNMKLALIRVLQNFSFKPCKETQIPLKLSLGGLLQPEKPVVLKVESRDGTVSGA

[12] = Permeability of the compound at pH 7.4 by PAMPA; assay type: ADME; conditions: read-out: permeability
[13] = Permeability from apical to basolateral side in human Caco2 cells; assay type: ADME, cell-based; conditions: Caco-2, read-out: permeability
[14] = Toxicity in CD1 mouse model of formalin-induced nociception assessed as hypothermia at 30 mg/kg, po; assay type: organism-based; conditions: in vivo
[15] = Metabolic stability in rat liver microsomes assessed as parent compound remaining at 0.5 uM after 10 mins; assay type: ADME, Microsome; conditions: read-out: Stability
[16] = target: T6, Sodium channel protein type 9 subunit alpha (Mus musculus, UniProt Q62205); experiment: Inhibition of recombinant mouse Nav1.7 expressed in HEK293 cells at -70 mV holding potential by patch clamp electrophysiology method; assay type: cell-based
T6 sequence (Q62205 whole entry): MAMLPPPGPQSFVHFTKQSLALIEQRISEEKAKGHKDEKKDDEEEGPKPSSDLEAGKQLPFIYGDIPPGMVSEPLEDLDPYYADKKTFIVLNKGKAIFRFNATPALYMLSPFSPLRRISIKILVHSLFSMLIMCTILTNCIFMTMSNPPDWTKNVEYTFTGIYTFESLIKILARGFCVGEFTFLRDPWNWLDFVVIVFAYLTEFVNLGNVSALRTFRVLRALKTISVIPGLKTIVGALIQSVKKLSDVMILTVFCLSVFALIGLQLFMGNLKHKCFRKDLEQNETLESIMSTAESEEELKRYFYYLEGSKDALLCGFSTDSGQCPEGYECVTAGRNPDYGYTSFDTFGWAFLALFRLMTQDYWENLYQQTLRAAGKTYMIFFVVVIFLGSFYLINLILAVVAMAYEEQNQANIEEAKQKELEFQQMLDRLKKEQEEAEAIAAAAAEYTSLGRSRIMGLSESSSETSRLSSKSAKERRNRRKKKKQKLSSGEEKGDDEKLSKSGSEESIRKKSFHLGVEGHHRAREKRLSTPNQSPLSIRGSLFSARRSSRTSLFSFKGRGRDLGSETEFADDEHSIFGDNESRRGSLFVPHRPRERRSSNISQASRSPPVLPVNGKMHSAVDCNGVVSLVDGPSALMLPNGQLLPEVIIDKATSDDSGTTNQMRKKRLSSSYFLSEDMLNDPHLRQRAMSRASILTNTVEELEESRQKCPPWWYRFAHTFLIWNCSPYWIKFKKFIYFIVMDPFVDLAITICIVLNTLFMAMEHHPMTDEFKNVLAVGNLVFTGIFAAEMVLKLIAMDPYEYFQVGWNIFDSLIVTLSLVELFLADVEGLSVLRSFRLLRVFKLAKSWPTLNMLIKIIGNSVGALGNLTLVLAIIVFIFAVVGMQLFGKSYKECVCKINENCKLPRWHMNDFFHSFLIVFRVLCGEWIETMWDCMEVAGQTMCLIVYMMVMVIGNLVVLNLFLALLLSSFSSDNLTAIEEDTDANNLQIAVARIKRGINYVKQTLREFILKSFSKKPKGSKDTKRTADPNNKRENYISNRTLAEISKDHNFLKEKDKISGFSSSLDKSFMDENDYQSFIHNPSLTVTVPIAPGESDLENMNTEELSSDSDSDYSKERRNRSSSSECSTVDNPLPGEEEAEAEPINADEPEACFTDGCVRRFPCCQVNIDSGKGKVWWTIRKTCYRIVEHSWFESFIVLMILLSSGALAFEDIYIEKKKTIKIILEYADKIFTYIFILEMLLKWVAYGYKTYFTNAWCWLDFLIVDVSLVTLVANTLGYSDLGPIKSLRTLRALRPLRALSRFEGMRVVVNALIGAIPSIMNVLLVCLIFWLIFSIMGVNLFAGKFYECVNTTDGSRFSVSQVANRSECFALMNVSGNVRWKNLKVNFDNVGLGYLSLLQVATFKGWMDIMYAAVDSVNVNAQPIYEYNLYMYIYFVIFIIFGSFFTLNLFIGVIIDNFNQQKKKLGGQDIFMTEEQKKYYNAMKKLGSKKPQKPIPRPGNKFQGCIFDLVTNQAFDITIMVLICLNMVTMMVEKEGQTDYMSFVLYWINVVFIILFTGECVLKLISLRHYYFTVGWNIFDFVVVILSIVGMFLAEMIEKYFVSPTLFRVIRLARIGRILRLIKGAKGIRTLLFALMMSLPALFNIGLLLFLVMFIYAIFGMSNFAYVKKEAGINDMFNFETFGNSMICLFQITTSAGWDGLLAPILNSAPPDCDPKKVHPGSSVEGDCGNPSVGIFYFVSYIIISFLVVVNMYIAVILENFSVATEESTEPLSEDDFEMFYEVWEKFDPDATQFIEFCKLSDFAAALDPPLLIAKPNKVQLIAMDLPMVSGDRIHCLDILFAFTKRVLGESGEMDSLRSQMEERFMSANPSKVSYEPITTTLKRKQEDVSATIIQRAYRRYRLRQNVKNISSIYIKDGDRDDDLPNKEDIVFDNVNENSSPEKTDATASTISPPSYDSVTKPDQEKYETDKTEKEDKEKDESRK

[17] = target: T7, Cytochrome P450 2C9 (Homo sapiens, UniProt P11712); experiment: Inhibition of CYP2C9 in human liver microsomes; assay type: ADME; conditions: human, microsomes
T7 sequence (P11712 whole entry): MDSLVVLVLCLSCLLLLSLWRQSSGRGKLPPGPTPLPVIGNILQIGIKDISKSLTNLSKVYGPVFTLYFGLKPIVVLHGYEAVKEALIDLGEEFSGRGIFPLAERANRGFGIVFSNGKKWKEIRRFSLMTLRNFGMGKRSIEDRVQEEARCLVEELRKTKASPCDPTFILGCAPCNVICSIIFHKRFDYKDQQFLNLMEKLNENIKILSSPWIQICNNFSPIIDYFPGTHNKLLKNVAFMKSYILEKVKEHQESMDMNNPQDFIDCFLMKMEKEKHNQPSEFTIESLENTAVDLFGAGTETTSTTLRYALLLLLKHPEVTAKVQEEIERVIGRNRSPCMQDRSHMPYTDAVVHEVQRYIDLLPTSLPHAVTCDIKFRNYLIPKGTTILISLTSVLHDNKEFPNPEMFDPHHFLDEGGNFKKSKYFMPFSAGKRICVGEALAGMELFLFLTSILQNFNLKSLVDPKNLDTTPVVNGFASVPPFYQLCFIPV

[18] = target: T4, Sodium channel protein type 9 subunit alpha; experiment: Inhibition of human Nav1.7 expressed in HEK293 cells after 600 secs at -60 mV holding potential by ion works barracuda population patch clamp method; assay type: cell-based
[19] = target: T8, Cytochrome P450 2D6 (Homo sapiens, UniProt P10635); experiment: Time-dependant inhibition of CYP2D6 in human liver microsomes; assay type: ADME
T8 sequence (P10635 whole entry): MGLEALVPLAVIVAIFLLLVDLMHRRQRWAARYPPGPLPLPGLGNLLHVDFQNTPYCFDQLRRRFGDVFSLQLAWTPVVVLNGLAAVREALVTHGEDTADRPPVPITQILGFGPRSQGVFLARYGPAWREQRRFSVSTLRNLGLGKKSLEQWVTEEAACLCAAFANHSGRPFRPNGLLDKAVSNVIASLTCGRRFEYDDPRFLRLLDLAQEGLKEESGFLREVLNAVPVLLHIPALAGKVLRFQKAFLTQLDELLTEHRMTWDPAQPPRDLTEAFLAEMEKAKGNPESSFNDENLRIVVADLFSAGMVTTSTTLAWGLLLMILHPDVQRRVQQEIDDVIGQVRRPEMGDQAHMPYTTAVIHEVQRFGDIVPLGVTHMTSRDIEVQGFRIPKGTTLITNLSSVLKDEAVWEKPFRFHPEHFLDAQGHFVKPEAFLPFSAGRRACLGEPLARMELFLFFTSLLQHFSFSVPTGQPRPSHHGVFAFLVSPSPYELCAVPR

[20] = Fraction unbound in human plasma; assay type: ADME, cell-free
[21] = target: T5, Cytochrome P450 3A4; experiment: Inhibition of CYP3A4 in human liver microsomes; assay type: ADME; conditions: human, microsomes
[22] = target: Sodium channel protein type 5 subunit alpha (Homo sapiens, UniProt Q14524); experiment: Inhibition of human Nav1.5 expressed in HEK293 cells after 600 secs at -50 mV holding potential by ion works barracuda population patch clamp method; assay type: cell-based
[23] = Metabolic stability in mouse liver microsomes assessed as parent compound remaining at 0.5 uM after 10 mins; assay type: ADME, Microsome; conditions: read-out: Stability
[24] = target: T7, Cytochrome P450 2C9; experiment: Time-dependant inhibition of CYP2C9 in human liver microsomes; assay type: ADME
[25] = target: T1, Cytochrome P450 2B6; experiment: Inhibition of CYP2B6 in human liver microsomes; assay type: ADME; conditions: human, microsomes
[26] = target: T2, Cytochrome P450 2C19; experiment: Inhibition of CYP2C19 in human liver microsomes; assay type: ADME; conditions: human, microsomes
[27] = Unbound plasma concentration in CD1 mouse model of formalin-induced nociception at 30 mg/kg, po; assay type: ADME, organism-based; conditions: in vivo
[28] = Plasma concentration in CD1 mouse model of formalin-induced nociception at 30 mg/kg, po; assay type: ADME, organism-based; conditions: read-out: Cp, in vivo
[29] = target: T8, Cytochrome P450 2D6; experiment: Inhibition of CYP2D6 in human liver microsomes; assay type: ADME; conditions: human, microsomes
[30] = Permeability from basolateral to apical side in human Caco2 cells; assay type: ADME, cell-based; conditions: Caco-2, read-out: permeability
[31] = Metabolic stability in human liver microsomes assessed as parent compound remaining at 0.5 uM after 10 mins; assay type: ADME, Microsome; conditions: read-out: Stability
[32] = target: T3, Cytochrome P450 2C8; experiment: Inhibition of CYP2C8 in human liver microsomes; assay type: ADME; conditions: human, microsomes
[33] = Efflux ratio of permeability in human Caco2 cells; assay type: ADME, cell-based; conditions: Caco-2
[34] = target: T6, Sodium channel protein type 9 subunit alpha; experiment: Inhibition of Nav1.7 in mouse DRG neurons at -70 mV holding potential by patch clamp electrophysiology method
[35] = Unbound drug level in DRG neurons of CD1 mouse model of formalin-induced nociception at 30 mg/kg, po; assay type: ADME, organism-based, DRG neuron; conditions: in vivo

| Papp [1] | TDI [2] | TDI [3] | concentration [4] | fraction unbound [7] | TDI [8] | IC50 [9] | TDI [11] | Papp [12] | Papp A→B [13] | remaining at 10 min, 0.5 µM [15] | IC50 [16] | inhibition (INH) [17] | TDI [19] | Cp(f) [27] | concentration [28] | SMILES | Activity [5] | Activity [6] | Activity [10] | Activity [14] | other results |
| --- | --- | --- | --- | --- | --- | --- | --- | --- | --- | --- | --- | --- | --- | --- | --- | --- | --- | --- | --- | --- | --- |
| 33.5 ×10⁻⁶ cm/s | Not Active | Not Active | 11000 nM | 0.002 | Not Active | 3.3 nM | Not Active | 31 ×10⁻⁶ cm/s | 3.4 ×10⁻⁶ cm/s | 37% | 10 nM | Not Active | Not Active | 116 nM | 58000 nM | CC(C)COc1ncc(-c2cn(C)c3cc(C(=O)NS(=O)(=O)C4CC4)c(F)cc23)cc1Cl | inactive | inactive | Non-Toxic | Non-Toxic | IC50 [18]: 230 nM; fraction unbound [20]: < 0.001; inhibition (INH) [21]: Not Active; IC50 [22]: 5100 nM; remaining at 10 min, 0.5 µM [23]: 100%; TDI [24]: Not Active; inhibition (INH) [25]: Not Active; inhibition (INH) [26]: Not Active; inhibition (INH) [29]: Not Active; Papp B→A [30]: 10.2 ×10⁻⁶ cm/s; remaining at 10 min, 0.5 µM [31]: 100%; inhibition (INH) [32]: Not Active; efflux ratio [33]: 3 |
| 85.1 ×10⁻⁶ cm/s | Not Active | Not Active |  | 0.006 | Not Active | 19 nM | Not Active | 25.4 ×10⁻⁶ cm/s | 12 ×10⁻⁶ cm/s | 78% | 37 nM | Not Active | Not Active | 792 nM | 132000 nM | CC(C)COc1ccc(-c2cn(C)c3cc(C(=O)NS(=O)(=O)C4CC4)c(F)cc23)cn1 | inactive | inactive | Non-Toxic | Non-Toxic | fraction unbound [20]: 0.024; inhibition (INH) [21]: Not Active; remaining at 10 min, 0.5 µM [23]: 98%; TDI [24]: Not Active; inhibition (INH) [25]: Not Active; inhibition (INH) [26]: Not Active; inhibition (INH) [29]: Not Active; Papp B→A [30]: 18.9 ×10⁻⁶ cm/s; remaining at 10 min, 0.5 µM [31]: 100%; inhibition (INH) [32]: Not Active; IC50 [34]: 24 nM; efflux ratio [33]: 1.6 |
|  |  |  | 340 nM |  |  |  |  |  |  |  |  |  |  | 340 nM | 1400 nM | O=S(=O)(Nc1nccs1)c1cc(Cl)c(NCC23CCCN2CCC3)cc1F | inactive |  |  |  | Drug uptake(free) [35]: 340 nM |
